Assay results reported in US9987379B2, “Molecular probes for imaging of myelin” (Case Western Reserve University, priority 2008, dated 2018).
“Also recorded” adds a separate entry of the source.

What was measured:
Log P of CMC = type: physicochemical; conditions: method not stated
[1] = system: myelin in corpus callosum; experiment: In vitro CMC tissue staining of mouse brain sections (wild-type and Plp-Akt-DD); type: binding
Procedure: Free floating sections were incubated in 1% H2O2/Triton-100 for 10 min, then incubated in a solution of test compounds (100 μM) in 1% DMSO/PBS for 30 min at room temperature. The sections were washed three times with PBS before cover-slipping with fluorescence mounting medium (Vectashield, Vector laboratories). […] The fluorescent nature of these coumarin derivatives allows for staining of mouse brain tissue sections in a way similar to other conventional myelin stains. The tissue staining represents a direct approach to evaluate the binding specificity of the test compounds for myelin sheaths. The myelinated corpus callosum region was then examined by fluorescent microscopy. […] For correlation, the MBP immunostaining was also conducted in adjacent sections (FIG. 10E).

[2] = system: myelin sheaths of the corpus callosum and cerebellum; experiment: In situ CMC staining of myelin after i.v. injection; type: in vivo, mouse; conditions: 25 mg/kg tail vein, 1 hr post injection, wild-type and Plp-Akt-DD mice
Procedure: In this experiment, 25 mg/kg of CMC was administered through i.v. injection in the tail vein of 2-month old wild-type mice and Plp-Akt-DD mice Animals were sacrificed at 1 hr after injection through heart puncture. The brains were removed and fixed in 4% PFA. The brains were then sectioned and fluorescent images were directly acquired on a Zeiss Axiovert 200M inverted microscope (2.5× objective) with a AxioCam digital camera (Carl Zeiss Microlmagibg, Inc, Thornwood, N.Y.).
Following our in vitro studies, we investigated the ability of CMC to monitor myelin contents ex vivo in the mouse brain. A dose of 0.5 mg CMC (25 mg/kg) was injected via the tail vein into wild-type mice and Plp-Akt-DD mice. One hr postinjection, mice were perfused and brains were removed and sectioned as described above. CMC staining of myelin was then directly examined under fluorescent microscopy.

[3] = Stability of [125I]9 monitored by HPLC; type: physicochemical
Excerpt: The radiochemical identity of [^125I]9 was verified by co-injection with cold standard Compound 9. Following HPLC purification, [^125I]9 was obtained in 70% radiochemical yield with a radiochemical purity of >98% and a specific activity of 80 TBq/mmol As monitored by HPLC, [^125I]9 was found stable to be kept at room temperature for up to 8 hrs and in the refrigerator for up to 2 months.

[4] = Octanol-water partition coefficient measurement; type: physicochemical
Excerpt: The partition coefficient (PC) is an important parameter of brain permeability. PC values ranging 1.0˜3.5 often show good initial brain entry following i.v. injection (Wu, C.; Pike, V. W.; Wang, Y. Amyloid imaging: from benchtop to bedside. Curr Top Dev Biol 2005, 70, 171-213; Levin, V. A. Relationship of octanol/water partition coefficient and molecular weight to rat brain capillary permeability. J Med Chem 1980, 23, 682-684; Dishino, D. D.; Welch, M. J.; Kilbourn, M. R.; Raichle, M. E. Relationship between lipophilicity and brain extraction of C-11-labeled radiopharmaceuticals. J Nucl Med 1983, 24, 1030-1038. For this reason, we radioiodinated Compound 9 and quantitatively determined the lipophilicity of [^125I]9. Based on the conventional octanol-water partition measurement, the log Poct of [^125I]9 was determined as 2.5±0.1, which falls in the range for optimal brain entry.
Partition coefficients (PC) were measured by mixing the radioligands with 3 g (3.65 mL) 1-octanol and 3 g (3.0 mL) buffer (pH 7.40, 0.1 M phosphate) in a test tube. The test tube was vortexed for 3 mM at room temperature and then centrifuged (3500 rpm, 5 mM) 1 ml of samples from the 1-octanol and buffer layers were assayed for radioactivity content in a well γcounter. The partition coefficient was determined by calculating the ratio of cpm/g of 1-octanol to that of the buffer. […]

[5] = Brain uptake / permeability across the blood-brain barrier in mice; type: in vivo, mouse
Procedure: Encouraged by the aforementioned studies, we further evaluated the permeability of [^125I]9 across the blood brain barrier. Following bolus tail vein injection of [^125I]9 (0.2 ml, 0.185 MBq), the radioactivity concentration of [^125I]9 in the brain was determined at 2, 30, and 60 min post injection. […] The initial brain entry was 2.29±0.66% ID/g at 2 min post injection. At 30 min post injection, the brain radioactivity concentration reached its peak level (2.65±0.27% ID/g). […] Retention of [^125I]9 at later time points was likely due to binding to myelin membranes as indicated by aforementioned in vitro and in situ staining studies.
While under anesthesia, 0.1 mL of a saline solution (consisting of saline (2 mL, 9 mg/mL), propylene glycol (2 mL), ethanol (0.7 mL) and HCl (0.3 mL, […]))^25 containing 5 μCi of radioactive tracer, was injected into the tail veins of mice (Swiss-Webster, 2 month old, 2 mice per group). The mice were sacrificed by heart puncture at 2 mM, 30 mM, 60 min and 120 mM post injection under anesthesia. Brains were rapidly removed and weighed, and the brain uptake was expressed as percentage of injection dose per gram organ (% ID/g), which was calculated by a ratio of per gram tissue counts to counts of 1% of the initial dose (100 times diluted aliquots of the injected radioligand) measured at the same time.

[6] = system: myelinated corpus callosum and cerebellum; experiment: In vitro autoradiography of mouse brain sections; type: binding; conditions: sagittal mouse brain sections, 1 hr incubation
Procedure: To further evaluate the binding specificity of [^125I]9 to myelin sheaths in the brain, in vitro autoradiography was carried out in mice.
Mouse brain sections were incubated in [^125I]9 (20% Ethanol, 4,380,000 cpm/16 ml) for 1 hr. The slides were quickly washed with PBS buffer (10 mM, pH 7.0) 3 times, saturated Li2CO3 in 40% ethanol (2×3 mM), 40% ethanol (2 mM) and H2O (30 sec). After drying by air, the slides were put in a cassette and exposed to film for 44 hrs to obtain images.

| SMILES | logP (Log P of CMC) | staining contrast among the coumarin derivatives screened ([1]; 100 uM, mouse brain sections) | in vitro staining of myelin ([1]; 100 uM, wild-type mouse brain sections) | fluorescent intensity in Plp-Akt-DD mouse brain relative to wild-type mouse brain ([1]; corpus callosum, hypermyelinated Plp-Akt-DD vs wild-type) | brain entry and in situ labeling of myelin [2] | time found stable in the refrigerator ([3]; in the refrigerator) | time found stable at room temperature ([3]; room temperature) | log Poct [4] | brain radioactivity concentration ([5]; 2 min post tail vein injection) | brain radioactivity concentration ([5]; 30 min post tail vein injection) | brain radioactivity concentration ([5]; 60 min post tail vein injection) | brain radioactivity concentration ([5]; 120 min post tail vein injection) | autoradiographic labeling of brain sections [6] |
| --- | --- | --- | --- | --- | --- | --- | --- | --- | --- | --- | --- | --- | --- |
| Nc1ccc(-c2cc3ccccc3oc2=O)cc1 [CMC, 3-(4-aminophenyl)-2H-chromen-2-one] | 2.68 | highest contrast | selectively stained intact myelin tracks | 1.27 fold | highly permeable across the BBB and selectively localizes in myelinated regions; also recorded: entered the brain and selectively labeled myelin sheaths of the corpus callosum and cerebellum |  |  |  |  |  |  |  |  |
| Nc1ccc(C=Cc2ccc([125I])cc2)cc1 [[^125I]9, 4-[2-(4-[^125I]Iodo-phenyl)-vinyl]-phenylamine] |  |  |  |  |  | up to 2 months | up to 8 hrs | 2.5±0.1 | 2.29±0.66 % ID/g | 2.65±0.27 % ID/g | 2.05 ± 0.13 % ID/g | 1.12±0.23 % ID/g | distinct labeling of myelinated regions |
